From patent publication US9113629B2, “4-amino-6-(4-substituted-phenyl)-picolinates and 6-amino-2-(4-substituted-phenyl)-pyrimidine-4-carboxylates and their use as herbicides” (DOW AGROSCIENCES LLC, priority 2013, dated 2015)

How the values were obtained:
Type in all cases: in vivo
[1] = test system: AMARE: redroot pigwseed (Amaranthus retroflexus); experiment: Post-emergent Test I herbicidal activity; conditions: post-emergence, read-out: Visual Growth Reduction (%), AMARE
Method: (§1) Post-emergent Test I Seeds test species were obtained from commercial suppliers and planted into a 13 cm diameter-round pot containing soil-less media mix (metro-mix 360®, Sun Gro Horticulture). Postemergence treatments were planted 8-12 days prior to application and cultured in a greenhouse equipped with supplemental light sources to provide a 16 h photoperiod at 24-29° C. All pots were surface irrigated.
(§2) A weighted amount, determined by the highest rate to be tested, of each compound was dissolved in 1.3 mL acetone-DMSO (97:3, v/v) and diluted with 4.1 mL water-isopropanol-crop oil concentrate (78:20:2, v/v/v) containing 0.02% Triton X-155 to obtain concentrated stock solutions. Additional application rates were obtained by serial dilution of the high rate solution into a solution containing appropriate volume of 97:3 v/v mixture of acetone and DMSO and appropriate volume of an aqueous mixture of water, isopropyl alcohol, crop oil concentrate (78:20:2, v/v/v) containing 0.02% Triton X-155.
(§3) Formulated compounds were applied using a DeVilbiss® compressed air sprayer at 2-4 psi. Following treatment, pots were returned to the greenhouse for the duration of the experiment. All pots were sub-irrigated as need to provide optimum growing conditions. All pots were fertilized one time per week by subirrigating with Peters Peat-Lite Special® fertilizer (20-10-20).
(§4) […] All evaluations were made visually on a scale of 0 to 100 where 0 represents no activity and 100 represents complete plant death. Visual assessments of plant injury were made based on growth reduction, discoloration, leaf deformity and necrosis.

[2] = test system: AVEFA: wild oats (Avena fatua); experiment: Post-emergent Test I herbicidal activity; conditions: post-emergence, 336 h, read-out: Visual Growth Reduction (%) 14 Days After Application, AVEFA
Method: as §1, §2, §3, §4

[3] = test system: ECHCG: barnyardgrass (Echinochloa crus-galli); experiment: Post-emergent Test I herbicidal activity; conditions: post-emergence, 336 h, read-out: Visual Growth Reduction (%) 14 Days After Application, ECHCG
Method: as §1, §2, §3, §4

[4] = test system: HELAN: sunflower (Helianthus annuus); experiment: Post-emergent Test I herbicidal activity; conditions: post-emergence, 336 h, read-out: Visual Growth Reduction (%) 14 Days After Application, HELAN
Method: as §1, §2, §3, §4

[5] = test system: IPOHE: ivyleaf morningglory (Ipomoea hederecea); experiment: Post-emergent Test I herbicidal activity; conditions: post-emergence, 336 h, read-out: Visual Growth Reduction (%) 14 Days After Application, IPOHE
Method: as §1, §2, §3, §4

[6] = test system: SETFA: giant foxtail (Setaria faberi); experiment: Post-emergent Test I herbicidal activity; conditions: post-emergence, 336 h, read-out: Visual Growth Reduction (%) 14 Days After Application, SETFA
Method: as §1, §2, §3, §4

[7] = test system: BROTE: downy brome (Bromus tectorum); experiment: Post-emergent Test III, herbicidal activity in wheat and barley; conditions: for pest or weed control at 35 g/ha / pest or weed control at 70 g/ha / pest or weed control at 140 g/ha: Bromus tectorum, post-emergence, 504 h, read-out: Visual Growth Reduction (%) 21 Days After Application BROTE; for pest or weed control at 35 g/ha: 35 g ai/ha; for pest or weed control at 70 g/ha: 70 g ai/ha; for pest or weed control at 140 g/ha: 140 g ai/ha; for GR50 BROTE / GR80 BROTE: probit analysis, 21 days after application; for GR50 BROTE: dose for growth reduction of 50 percent; for GR80 BROTE: dose for growth reduction of 80 percent
Outline: (§5)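 Plants at the second to third true-leaf stage, grown in a greenhouse at about 18/17 °C with a 14 h photoperiod, were sprayed post-emergence at 187 L/ha with the high rate and ½× to 1/16× serial dilutions in an acetone/DMSO/crop-oil/surfactant carrier. Injury was rated visually at 21 d on a 0–100% scale, and GR20–GR90 were derived by probit analysis.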

[8] = test system: PAPRH: common poppy (Papaver rhoeas); experiment: as above; conditions: for pest or weed control at 35 g/ha / pest or weed control at 70 g/ha / pest or weed control at 140 g/ha: Papaver rhoeas, post-emergence, 504 h, read-out: Visual Growth Reduction (%) 21 Days After Application PAPRH; for pest or weed control at 35 g/ha: 35 g ai/ha; for pest or weed control at 70 g/ha: 70 g ai/ha; for pest or weed control at 140 g/ha: 140 g ai/ha; for GR50 PAPRH / GR80 PAPRH: probit analysis, 21 days after application; for GR50 PAPRH: dose for growth reduction of 50 percent; for GR80 PAPRH: dose for growth reduction of 80 percent
Outline: as §5

Row | Compound | pest or weed control at 35 g/ha [7] | pest or weed control at 70 g/ha [7] | pest or weed control at 140 g/ha [7] | GR50 BROTE [7] | GR80 BROTE [7] | pest or weed control at 35 g/ha [8] | pest or weed control at 70 g/ha [8] | pest or weed control at 140 g/ha [8] | GR50 PAPRH [8] | GR80 PAPRH [8] | further results
1 | COC(=O)c1nc(-c2ccc(OC(F)F)cc2)c(F)c(N)c1Cl [Compound 85] | 0 to 29% | 0 to 29% | 0 to 29% | >140 g ai/ha | >140 g ai/ha | 85 to 94% | 95 to 100% | 95 to 100% | 1 g ai/ha | 3 g ai/ha | pest or weed control at 3760 g/ha ([1]; 3.76 kg ai/ha): 95 to 100%; pest or weed control at 3760 g/ha ([2]; 3.76 kg ai/ha): 30 to 44%; pest or weed control at 3760 g/ha ([3]; 3.76 kg ai/ha): 95 to 100%; pest or weed control at 3760 g/ha ([4]; 3.76 kg ai/ha): 95 to 100%; pest or weed control at 3760 g/ha ([5]; 3.76 kg ai/ha): 30 to 44%; pest or weed control at 3760 g/ha ([6]; 3.76 kg ai/ha): 85 to 94%
2 | Nc1c(F)c(-c2ccc(I)cc2)nc(C(=O)O)c1Cl [Compound 45, 4-amino-3-chloro-5-fluoro-6-(4-iodophenyl)picolinic acid] | 85 to 94% | 85 to 94% | 95 to 100% | 13 g ai/ha | 36 g ai/ha | 95 to 100% | 95 to 100% | 95 to 100% | 1 g ai/ha | 1 g ai/ha | pest or weed control at 3960 g/ha ([1]; 3.96 kg ai/ha): 95 to 100%; pest or weed control at 3960 g/ha ([2]; 3.96 kg ai/ha): 95 to 100%; pest or weed control at 3960 g/ha ([3]; 3.96 kg ai/ha): 95 to 100%; pest or weed control at 3960 g/ha ([4]; 3.96 kg ai/ha): 95 to 100%; pest or weed control at 3960 g/ha ([5]; 3.96 kg ai/ha): 85 to 94%; pest or weed control at 3960 g/ha ([6]; 3.96 kg ai/ha): 95 to 100%
3 | COC(=O)c1nc(-c2ccc(I)cc2)c(F)c(N)c1Cl [Compound 118, Methyl 4-amino-6-(4-iodophenyl)-3-chloro-5-fluoropicolinate] | 60 to 74% | 85 to 94% | 85 to 94% | 31 g ai/ha | 64 g ai/ha | 95 to 100% | 95 to 100% | 95 to 100% | 1 g ai/ha | 1 g ai/ha | pest or weed control at 2320 g/ha ([1]; 2.32 kg ai/ha): 95 to 100%; pest or weed control at 2320 g/ha ([2]; 2.32 kg ai/ha): 95 to 100%; pest or weed control at 2320 g/ha ([3]; 2.32 kg ai/ha): 95 to 100%; pest or weed control at 2320 g/ha ([4]; 2.32 kg ai/ha): 95 to 100%; pest or weed control at 2320 g/ha ([5]; 2.32 kg ai/ha): 95 to 100%; pest or weed control at 2320 g/ha ([6]; 2.32 kg ai/ha): 95 to 100%
4 | COC(=O)c1nc(-c2ccc(C#N)cc2)c(F)c(N)c1Cl [Compound 142] | 0 to 29% | 0 to 29% | 0 to 29% | >140 g ai/ha | >140 g ai/ha | 85 to 94% | 95 to 100% | 95 to 100% | 1 g ai/ha | 4 g ai/ha | pest or weed control at 3840 g/ha ([1]; 3.84 kg ai/ha): 95 to 100%; pest or weed control at 3840 g/ha ([2]; 3.84 kg ai/ha): 45 to 59%; pest or weed control at 3840 g/ha ([3]; 3.84 kg ai/ha): 95 to 100%; pest or weed control at 3840 g/ha ([4]; 3.84 kg ai/ha): 95 to 100%; pest or weed control at 3840 g/ha ([5]; 3.84 kg ai/ha): 95 to 100%; pest or weed control at 3840 g/ha ([6]; 3.84 kg ai/ha): 60 to 74%
5 | COC(=O)c1nc(-c2ccc(Br)c(F)c2F)cc(N)c1Cl [Compound 114, methyl 4-amino-6-(4-bromo-2,3-difluorophenyl)-3-chloropicolinate] | 0 to 29% | 0 to 29% | 0 to 29% | >140 g ai/ha | >140 g ai/ha | 95 to 100% | 95 to 100% | 95 to 100% | 1 g ai/ha | 4 g ai/ha | pest or weed control at 3920 g/ha ([1]; 3.92 kg ai/ha): 95 to 100%; pest or weed control at 3920 g/ha ([2]; 3.92 kg ai/ha): 0 to 29%; pest or weed control at 3920 g/ha ([3]; 3.92 kg ai/ha): 95 to 100%; pest or weed control at 3920 g/ha ([4]; 3.92 kg ai/ha): 95 to 100%; pest or weed control at 3920 g/ha ([5]; 3.92 kg ai/ha): 85 to 94%; pest or weed control at 3920 g/ha ([6]; 3.92 kg ai/ha): 75 to 84%
